From patent US20200375929A1, “METHODS AND COMPOSITIONS FOR THE TREATMENT OF DISEASES ASSOCIATED WITH CANCER, INFLAMMATION, OR IMMUNE RESPONSE” (Washington University, priority 2017, published 2020)
Entries after “also recorded” stand apart in the source; their conditions may differ.

Legend:
IκBζ = test: LPS-induced Ikb-ζ protein induction in BMDMs (western blot); type: cell-based, mouse
Method: (§1) BMDM were prepared from 6- to 12-week-old mice as described 1 and cultured in RMPI-1640 medium supplemented with 10% fetal bovine serum (FBS), 2 mM L-glutamine, and 100 U/mL penicillin-streptomycin and mouse recombinant M-CSF ([…], Peprotech). For experiments, cells were seeded at concentration 10^6 cells/mL in tissue culture plates of various formats. The cells were treated with DI (250 μM (unless stated otherwise), cat #592498, Sigma), DMF (50 μM (unless stated otherwise), cat #242926, Sigma), 3-(ethoxycarbonyl)but-3-enoic acid (3MI, 5 μM, Aris Pharmaceuticals Inc.), 4-ethoxy-2-methylene-4-oxobutanoic acid (MI, Aris Pharmaceuticals Inc.) for 12 h and activated with lipopolysaccharide (LPS; 100 ng/mL; E. coli 0111:B4, Sigma) for 1 h or as indicated. In some experiments cells were stimulated with combination of LPS (20 ng/mL) and IFN-γ (50 ng/mL; Peprotech). In some experiments cells were treated with α-tocopherol (AT, 10 μM; Sigma), MitoTEMPO (MT, 500 μM; Sigma), N-acetylcysteine (NAC, 1 mM, Sigma), ethylester of GSH (EtGSH; 1 mM, Santa Cruz) or buthionene sulfoximine (BSO, 500 μM, Sigma) alone or in combination with DI for 12 h. In some experiments BMDMs were treated with DI for 12 h and bafilomycin A (BafA, 100 nM, Sigma) or MG132 (10 μM, Selleckchem) were added 30 min before subsequent LPS stimulation.
Cells were lysed in RIPA Lysis Buffer System (Santa Cruz) and heat-denatured at 95° C. for 5 min in reducing sample buffer (BioRad). Proteins were separated on 4%-20% polyacrylamide gradient gels (BioRad) and transferred onto 0.45 μm pore size PVDF membranes (Millipore). Non-specific binding was blocked with 5% skim milk (or 5% BSA when phospho-proteins were analyzed), and membranes were probed with primary antibodies specific to Nrf2 (#12721), HO-1 (#70081), IκBζ (mouse specific, #93726), IκBζ(#9244), ATF3 (#D2Y5W), IRAK1 (#4504; sensitivity of IRAK1 detection diminishes upon IRAK1 K63 ubiquitination), phospho-IKK (Ser176/180, #2697), p62/SQSTM1 (#5114), phospho-eIF2α (Ser51, #9721), eIF2α (#5324) from Cell Signaling; GAPDH (sc-25778), IκBα (sc-1643), ATF3 (sc-188), SDHA (sc-166909) from Santa Cruz; NQO1 (ab28947) from Abeam, followed by incubation with anti-rabbit-HRP (1:10,000; sc-2030) or anti-mouse-HRP (1:10,000; sc-2031) from Santa Cruz and Clarity western ECL substrate (Bio-Rad). Membranes were exposed to X-Ray films (Research Products International Corp.) and developed using SRX-101A film processor (Konica Minolta). GAPDH run on the same blot was used as loading control. After scanning of original films image brightness of some blots was adjusted and bands were cropped using ImageJ. Densitometry was performed using ImageJ.

Regnase-1 = Regnase-1 protein levels in BMDMs (western blot); type: cell-based, mouse; conditions: unstimulated macrophages, DI
Method: (§2) BMDM were prepared from 6- to 12-week-old mice as described 1 and cultured in RMPI-1640 medium supplemented with 10% fetal bovine serum (FBS), 2 mM L-glutamine, and 100 U/mL penicillin-streptomycin and mouse recombinant M-CSF ([…], Peprotech). For experiments, cells were seeded at concentration 10^6 cells/mL in tissue culture plates of various formats. […]
(§3) Cells were lysed in RIPA Lysis Buffer System (Santa Cruz) and heat-denatured at 95° C. for 5 min in reducing sample buffer (BioRad). […] Non-specific binding was blocked with 5% skim milk (or 5% BSA when phospho-proteins were analyzed), and membranes were probed with primary antibodies specific to Nrf2 (#12721), HO-1 (#70081), IκBζ (mouse specific, #93726), IκBζ(#9244), ATF3 (#D2Y5W), IRAK1 (#4504; sensitivity of IRAK1 detection diminishes upon IRAK1 K63 ubiquitination), phospho-IKK (Ser176/180, #2697), p62/SQSTM1 (#5114), phospho-eIF2α (Ser51, #9721), eIF2α (#5324) from Cell Signaling; GAPDH (sc-25778), IκBα (sc-1643), ATF3 (sc-188), SDHA (sc-166909) from Santa Cruz; NQO1 (ab28947) from Abeam, followed by incubation with anti-rabbit-HRP (1:10,000; sc-2030) or anti-mouse-HRP (1:10,000; sc-2031) from Santa Cruz and Clarity western ECL substrate (Bio-Rad). […]

ATF3 = ATF3 protein expression (western blot); type: cell-based, mouse; conditions: BMDMs, DI, also on Nrf2−/− background
Method: as §1, with “In some experiments BMDMs were treated with DI for 12 h and bafilomycin A (BafA, 100 nM, Sigma) or MG132 (10 μM, Selleckchem) were added 30 min before subsequent LPS stimulation.” left out
as §3

eIF2α = eIF2α phosphorylation in BMDMs (western blot); type: cell-based, mouse; conditions: DI
Method: as §2, §3

Ikb-ζ = test: IL17A-mediated Ikb-ζ induction in HaCat cells (western blot); type: cell-based, human; conditions: DI 12 h at non-toxic concentrations, IL17A 100 ng/ml up to 4 h
STAT3 = STAT3 activation in LPS-stimulated BMDMs (western blot); type: cell-based, mouse
Method: as §1, with “In some experiments BMDMs were treated with DI for 12 h and bafilomycin A (BafA, 100 nM, Sigma) or MG132 (10 μM, Selleckchem) were added 30 min before subsequent LPS stimulation.” left out
as §3

[1] = test system: IκBζ target genes (Defb4, S100a7a, Lcn2, S100a9); test: IκBζ target gene expression in IL-17A-stimulated mouse keratinocytes (qPCR); type: cell-based; conditions: DI 12 h, IL-17A 4 h
Method: RNA from cultured cells was isolated using a Total RNA I kit (OMEGA). RNA from mouse ear skin was extracted using RNAeasy mini kit (Qiagen) after tissue disruption with sterile zirconium beads on a MagNA Lyser (Roche). Isolated RNA was reverse transcribed using AffinityScript Multi-Temp reverse transcriptase (Agilent Technologies) according to the manufacturer's protocol. Reactions were performed in 96-well plates using a SYBR Green PCR Master mix (Thermo Fisher Scientific) using a LightCycler® 96 or LightCycler® 480 (Roche Diagnostics). All assays were performed at least in duplicates, and reaction mixtures in 20 μL volumes (96-plate) or 10 μL volumes (384-plate) were processed under the following cycling conditions: initial 10 min denaturation at 95° C., followed by 40 cycles at 95° C. for 10 s, 60° C. for 1 min. Threshold cycle (CT) values for each sample were determined by automated threshold analysis. Expression levels of all mRNAs were normalized to reference gene Actb in BMDMs or to Rpl19 in mouse keratinocytes and tissue samples; to ACTB in human blood monocytes or RPLP0 in human keratinocytes. The relative increase in the expression level of a gene was normalized to the level of expression in unstimulated control cells in each experiment. IκBζ-dependent genes selected for analysis in macrophages were previously published. […]

C=C(CC(=O)OC)C(=O)OC [DI, dimethyl itaconate]
IκBζ protein levels upon DI treatment in Atf3−/− cells (IκBζ; Atf3−/− BMDMs, DI, LPS): restored IκBζ protein levels
LPS-induced Ikb-ζ induction, protein level (IκBζ; BMDMs treated with compound 12 h, then LPS 100 ng/ml): almost complete inhibition; also recorded: completely abolished; also recorded: inhibited IκBζ induction
effect on IκBζ/IL-6 in combination with BSO (IκBζ; BMDMs, compound plus BSO 500 μM, LPS): enhanced the inhibitory effect
DI inhibition of Ikb-ζ induction in Nrf2-deficient cells (IκBζ; Nrf2 KO BMDMs, DI 250 μM 12 h, LPS): did not affect inhibition of Ikb-ζ induction; also recorded: did not alleviate
IκBζ inhibition by DI in p62/SQSTM1- or HO-1-lacking macrophages (IκBζ; macrophages genetically lacking p62/SQSTM1 or HO-1): did not rescue IκBζ inhibition by DI
Regnase-1 protein (Regnase-1): up-regulated Regnase-1
ATF3 protein (ATF3): upregulated
eIF2α phosphorylation in Atf3−/− macrophages (eIF2α; Atf3−/− macrophages): failed to increase eIF2α phosphorylation
eIF2α phosphorylation (eIF2α; WT macrophages): marked increase
IL17A-mediated Ikb-ζ induction (Ikb-ζ): almost completely inhibited
STAT3 activation (Y705 phosphorylation) (STAT3; BMDMs, 12 h pretreatment): inhibits STAT3 activation
inhibition of STAT3 activation, Nrf2 KO compared with WT (STAT3; Nrf2 KO BMDMs, DI 250 μM 12 h): no differences in extent of inhibition of STAT3 activation
expression of IκBζ target genes [1]: downregulated
